According to US12653800B2, “Small molecule inhibitors of TLR2 signaling” (University of Maryland, Baltimore, priority 2015, dated 2026):

Tests used:
Format in all cases: cell-based
TLR4 = target: T1, TLR4 (Mus musculus, UniProt Q9QUK6); test: Cytokine mRNA in murine peritoneal macrophages stimulated with TLR4 agonists (LPS, HKEC)
T1 sequence (Q9QUK6 26-835): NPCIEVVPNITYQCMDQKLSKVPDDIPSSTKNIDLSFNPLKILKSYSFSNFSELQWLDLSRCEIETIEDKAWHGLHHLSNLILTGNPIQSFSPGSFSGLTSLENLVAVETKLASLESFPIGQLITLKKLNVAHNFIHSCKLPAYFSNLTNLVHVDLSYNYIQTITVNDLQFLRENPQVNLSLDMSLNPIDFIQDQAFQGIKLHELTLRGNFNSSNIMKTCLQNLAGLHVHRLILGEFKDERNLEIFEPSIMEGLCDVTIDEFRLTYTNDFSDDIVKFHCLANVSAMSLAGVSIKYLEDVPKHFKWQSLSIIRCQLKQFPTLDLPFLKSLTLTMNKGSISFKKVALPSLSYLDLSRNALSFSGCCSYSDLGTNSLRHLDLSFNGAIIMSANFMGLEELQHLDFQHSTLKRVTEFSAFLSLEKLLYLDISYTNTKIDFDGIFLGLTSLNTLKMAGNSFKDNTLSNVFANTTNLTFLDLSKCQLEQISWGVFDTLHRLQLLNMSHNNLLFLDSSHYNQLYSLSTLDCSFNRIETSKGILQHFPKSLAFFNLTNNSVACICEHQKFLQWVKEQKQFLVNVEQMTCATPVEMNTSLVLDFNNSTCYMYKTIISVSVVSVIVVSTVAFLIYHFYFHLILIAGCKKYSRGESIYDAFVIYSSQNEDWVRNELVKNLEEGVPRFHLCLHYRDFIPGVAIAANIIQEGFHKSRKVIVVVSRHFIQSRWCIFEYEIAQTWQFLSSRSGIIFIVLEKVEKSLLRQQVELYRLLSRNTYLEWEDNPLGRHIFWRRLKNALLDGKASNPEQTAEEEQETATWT
T1 sequence (Q9JHF9 19-160 partner): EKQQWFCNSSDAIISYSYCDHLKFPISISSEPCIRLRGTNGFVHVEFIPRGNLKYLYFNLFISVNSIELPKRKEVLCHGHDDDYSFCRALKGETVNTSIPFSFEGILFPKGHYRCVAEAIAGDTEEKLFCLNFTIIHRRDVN

TLR2/6 [1] = target: TLR2/6 (Homo sapiens, UniProt O60603); test: NF-κβ (ELAM)-luciferase reporter assay in transiently transfected HEK293T cells, P2C; parameters: expressed in transfected cells; host or cells: HEK293T, transient transfection (Superfect); conditions: P2C 50 ng/mL 5 hrs; for IC50: NF-κβ reporter assay in HEK293T cells, 1 μM-250 μM, read-out: IC50 for human TLR2/6 signaling
Description: (§1) FIG. 8. C29 inhibits hTLR2/1- and hTLR2/6-induced NF-κβ activation. (A, B) HEK293T cells were transiently transfected with reporter constructs for ELAM-luciferase, Renilla-luciferase, and either pcDNA3.1 or pcDNA3-YFP-hTLR2. Cells were pretreated for 1 hr with media, vehicle (65 μM NaOH), or C29 (50 μM) and treated with P3C or P2C (50 ng/mL) for 5 hrs in the presence of media, vehicle, or C29. Lysates were prepared and the dual-luciferase assay performed. Results are representative of 3 independent experiments each carried out in duplicate (**, p≤0.01; ***, p≤0.001).
(§2) FIG. 9. C29 is species-specific and blocks human TLR2/6 signaling, but not murine TLR2/6 signaling. (A-D) HEK293T cells were transiently transfected with reporter constructs for ELAM-luciferase, Renilla-luciferase, and pcDNA3.1 in combination with/without pcDNA3-YFP-hTLR2, pFLAG-CMV1-hTLR1, pcDNA3-CFP-hTLR6, pcDNA3.1-mTLR2-CFP, pcDNA3.1-mTLR1-YFP, or pcDNA3.1-mTLR6-CFP. Cells were pretreated for 1 hr with media, vehicle (65 μM NaOH), or C29 (50 μM) and then treated with P3C or P2C (50 ng/mL) for 5 hrs in the presence of media, vehicle, or C29. Lysates were prepared and the dual-luciferase assay performed. Panels A and B represent the mean±SEM from 3 independent experiments and panels C and D represent the mean±SEM from 2 independent experiments each carried out in duplicate (*, p≤0.05; **, p≤0.01).
(§3) FIG. 12. C29 L blocks human TLR2/1 and TLR2/6 signaling comparably to C29 in HEK293T cells. (A-D) HEK293T cells were transiently transfected with reporter constructs for ELAM-luciferase, Renilla-luciferase, and pcDNA3-YFP-hTLR2. Cells were pretreated for 1 hr with C29 or C29L (1 μM-250 μM) and treated with P3C or P2C (50 ng/mL) for 5 hrs in the presence of C29 or C29L. Lysates were prepared and dual-luciferase assay performed. Data is representative of 2 independent experiments each carried out in duplicate.
HEK293T cells were cultured and plated overnight in 12-well tissue culture plates (2×10^5 cells/well). Transfection mixtures consisted of pcDNA3-YFP-hTLR2 or pcDNA3.1 control vector (1 μg/well each), pELAM (NF-κB)-luciferase (0.2 μg/well), and pRL-TK-Renilla luciferase (0.05 μg/well). Transfection was carried out using Superfect transfection reagent, cells were recovered for 48 h, and treated for 5 h with medium or stimuli in the presence/absence of C29. Cells were lysed in a passive lysis buffer (Promega, Madison, WI) and firefly luciferase and Renilla luciferase activities were measured using the dual luciferase reporter assay system (Promega, Madison, WI). […]

TLR2/1 [2] = target: T2, TLR2/1 (Homo sapiens, UniProt O60603); test: NF-κβ (ELAM)-luciferase reporter assay in transiently transfected HEK293T cells, P3C; parameters: expressed in transfected cells; host or cells: HEK293T, transient transfection (Superfect); conditions: P3C 50 ng/mL 5 hrs; for IC50: NF-κβ reporter assay in HEK293T cells, 1 μM-250 μM, read-out: IC50 for human TLR2/1 signaling
Description: as §1, §2
as §3, with “Lysates were prepared and dual-luciferase assay performed. Data is representative of 2 independent experiments each carried out in duplicate.” left out
HEK293T cells were cultured and plated overnight in 12-well tissue culture plates (2×10^5 cells/well). […] Cells were lysed in a passive lysis buffer (Promega, Madison, WI) and firefly luciferase and Renilla luciferase activities were measured using the dual luciferase reporter assay system (Promega, Madison, WI). […]

TLR2/1 [3] = target: T2, TLR2/1; test: P3C-induced IL-8 mRNA (qRT-PCR) in HEK-TLR2 stable transfectants; parameters: expressed in transfected cells; conditions: for percent inhibition, TLR2/1 versus TLR2/6 stimulation: HEK-TLR2 cells, human TLR2 signaling
TLR2/6 [4] = target: TLR2/6 (Mus musculus, UniProt Q9QUN7); test: Cytokine mRNA in murine peritoneal macrophages stimulated with TLR2/6 agonists (P2C, zymosan)
TLR2/1 [5] = target: TLR2/1 (Mus musculus, UniProt Q9QUN7); test: Cytokine mRNA/protein in murine peritoneal macrophages stimulated with TLR2/1 agonists (P3C, LTA SA)
[6] = HEK293T expressing human TLR2, C29 50 μM

Sequence of TLR2/1 (Mus musculus, UniProt Q9QUN7) (Q9QUN7 25-784): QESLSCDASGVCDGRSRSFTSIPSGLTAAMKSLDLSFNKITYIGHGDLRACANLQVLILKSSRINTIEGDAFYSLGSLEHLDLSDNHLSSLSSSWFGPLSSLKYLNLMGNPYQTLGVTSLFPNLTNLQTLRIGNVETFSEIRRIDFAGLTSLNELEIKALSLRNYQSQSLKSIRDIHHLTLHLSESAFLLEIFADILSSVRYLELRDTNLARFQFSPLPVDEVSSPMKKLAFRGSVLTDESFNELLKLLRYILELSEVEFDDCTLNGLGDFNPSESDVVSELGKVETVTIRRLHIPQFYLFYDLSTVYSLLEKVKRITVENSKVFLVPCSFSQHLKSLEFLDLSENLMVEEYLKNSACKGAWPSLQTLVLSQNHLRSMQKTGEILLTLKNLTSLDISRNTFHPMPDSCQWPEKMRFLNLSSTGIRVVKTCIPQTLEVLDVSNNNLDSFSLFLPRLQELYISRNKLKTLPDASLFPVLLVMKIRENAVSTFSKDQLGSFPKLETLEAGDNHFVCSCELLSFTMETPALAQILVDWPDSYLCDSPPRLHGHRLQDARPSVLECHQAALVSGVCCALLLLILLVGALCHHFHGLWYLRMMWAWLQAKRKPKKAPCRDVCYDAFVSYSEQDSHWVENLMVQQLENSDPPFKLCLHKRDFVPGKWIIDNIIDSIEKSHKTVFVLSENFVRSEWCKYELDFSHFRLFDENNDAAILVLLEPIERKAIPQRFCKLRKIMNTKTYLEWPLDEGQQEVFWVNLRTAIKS
T2 sequence (O60603 21-784): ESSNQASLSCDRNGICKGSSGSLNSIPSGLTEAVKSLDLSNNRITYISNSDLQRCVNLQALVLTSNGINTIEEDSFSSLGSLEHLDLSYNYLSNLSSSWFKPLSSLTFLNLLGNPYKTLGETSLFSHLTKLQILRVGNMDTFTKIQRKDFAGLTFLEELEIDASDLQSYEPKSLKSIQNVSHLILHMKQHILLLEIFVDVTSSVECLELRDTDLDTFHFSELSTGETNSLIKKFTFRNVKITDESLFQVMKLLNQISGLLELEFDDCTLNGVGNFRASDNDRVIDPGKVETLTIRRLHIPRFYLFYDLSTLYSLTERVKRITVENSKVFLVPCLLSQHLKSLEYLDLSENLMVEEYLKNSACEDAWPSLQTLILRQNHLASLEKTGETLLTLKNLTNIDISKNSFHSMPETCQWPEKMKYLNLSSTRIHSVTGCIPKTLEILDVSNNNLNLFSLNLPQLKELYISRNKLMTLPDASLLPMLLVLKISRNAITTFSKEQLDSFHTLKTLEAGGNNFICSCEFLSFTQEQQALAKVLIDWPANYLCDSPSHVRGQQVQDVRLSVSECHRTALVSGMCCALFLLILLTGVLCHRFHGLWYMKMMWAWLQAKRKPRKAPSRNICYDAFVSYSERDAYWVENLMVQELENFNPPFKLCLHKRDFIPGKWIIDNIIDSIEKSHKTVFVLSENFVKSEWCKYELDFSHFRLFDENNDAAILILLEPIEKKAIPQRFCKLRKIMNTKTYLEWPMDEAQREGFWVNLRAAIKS
Sequence of TLR2/6 (Homo sapiens, UniProt O60603) (O60603 21-784): as above
Sequence of TLR2/6 (Mus musculus, UniProt Q9QUN7) (Q9QUN7 25-784): as the sequence (Q9QUN7 25-784) above

| TLR4 signaling pathway (TNF-α mRNA) (TLR4; 25 μM or 50 μM, LPS 100 ng/mL 1 hr) | TLR2/6 signaling pathway (TNF-α mRNA) (TLR2/6 [4]; 25 μM or 50 μM, P2C 100 ng/mL 1 hr) | TLR2/1-induced TNF-α gene expression (TLR2/1 [5]; murine macrophages, 25 μM or 50 μM, P3C 50 ng/mL 1 hr) | Compound | IC50 (TLR2/6 [1]) | IC50 (TLR2/1 [2]) | percent inhibition, TLR2/1 versus TLR2/6 stimulation (TLR2/1 [3]) | heat-killed Escherichia coli (HKEC)-induced IL-1β mRNA (TLR4; C29 50 μM, MOI=0.1, 4 hrs, signals predominately through TLR4) | P2C-induced NF-κβ-luciferase activity (TLR2/6 [1]; [6]) | hTLR2/6-induced NF-κβ-luciferase activity (TLR2/6 [1]; HEK293T transfected with human TLR2 and TLR6, C29 50 μM) | P3C-induced NF-κβ-luciferase activity (TLR2/1 [2]; [6]) | P3C-induced IL-8 mRNA (TLR2/1 [3]; C29 10 μM or 50 μM, P3C 200 ng/mL 1 hr, HEK-TLR2 stable transfectants) | zymosan-induced IL-1β mRNA (TLR2/6 [4]; C29 50 μM, zymosan 10 μg/mL 3 hrs) | P3C-induced IL-1β mRNA (TLR2/1 [5]; murine macrophages, C29 50 μM, P3C 50 ng/mL 3 hrs) | LTA SA-induced IL-1β mRNA (TLR2/1 [5]; murine macrophages, C29 50 μM, S. aureus LTA 1 μg/mL 3 hrs) | P3C-induced TNF-α mRNA (TLR2/1 [5]; murine peritoneal macrophages, C29 25 μM or 50 μM, P3C 50 ng/mL 1 hr) | P3C-induced IL-12 p40 protein (ELISA) (TLR2/1 [5]; murine peritoneal macrophages, C29 50 μM, P3C 50 ng/mL 4 or 6 hrs) |
| --- | --- | --- | --- | --- | --- | --- | --- | --- | --- | --- | --- | --- | --- | --- | --- | --- |
| no effect | no effect | dose-dependently inhibited | COc1cccc(C=O)c1O [Compound C29L, ortho-vanillin] | 37.2 µM | 24.2 µM | consistently greater when TLR2/1 is stimulated | – | – | – | – | – | – | – | – | – | – |
| – | – | – | COc1cccc(/C=N/c2cccc(C(=O)O)c2C)c1O [Compound C29] | 37.6 µM | 19.7 µM | consistently greater when TLR2/1 is stimulated | not blocked | inhibited | significantly inhibited | inhibited | blocked P3C- and P2C-induced IL-8 mRNA dose-dependently | did not inhibit | specifically blocked | specifically blocked | significantly reduced | significantly reduced |
